In patent publication US20080269293A1, “PYRAZOLE DERIVATIVES AS ANTI-PLATELET AND ANTI-THROMBOTIC AGENTS” (Pfizer Inc., priority 2006, published 2008) one finds IC50 data, which are given here for 16 molecules.

Where only a bound is given, the exact number is not on record here.

The experiment has as its target T1, platelet P2Y1 receptor (Homo sapiens, UniProt P47900).
T1 construct: expressed in transfected cells
Kind of experiment: P2Y1 receptor binding assay ([β-33P]-2-thiomethyl ADP). To be noted: binding of 0.3 nM [β-33P]-2-thiomethyl ADP, hP2Y1 expressing 132N1 cell membrane, 25° C., 60 minutes. As to the method: Conducting P2Y, Receptor Binding Assay
[β−^33P]-2-thiomethyl ADP (2100 Ci/mmol) was purchased from PerkinElmer, Protease Inhibitors Complete, EDTA-free, was purchased from Roche, and ADP (Adenosine diphosphate), MRS2179, and 2-thiomethy ADP (2-Me-S-ADP) were purchased from Sigma Chemical Co.
Binding of 0.3 nM [β-^33P]-2-thiomethyl ADP to platelet P2Y1 receptor in 132N1 cell membrane was carried out in triplicate at 25° C. with 96 well plate (Corning, 3365). Nonspecific binding was defined as binding in the presence of 1 μM of 2-Me-S-ADP. One […] of dimethyl sulfoxide (DMSO) or 1 μL of DMSO (Sigma-Aldrich, 472301) containing a test compound diluted to final assay concentrations of 0.1 nM to 1 mM were placed into each well of a Corning 96-well plate. A volume of 60 μL of buffer: 50 mM Tris pH 7.5 (Sigma, T-2194), 1 mM EDTA (Gibco, 15575-038) and 100 mM NaCl (Gibco, 200740-011) containing 0.3 nM [β-^33P]-2-thiomethyl ADP 40 μL of hP2Y1 expressing 132N1 cell membrane prep was added to each well. After incubation on shaker for 60 minutes, The contents of the wells are filtered and washed 8 times with Tomtec Cell Harvester through UniFilter 96, GF/B plates (PerkinElmer, 6005177) Forty five microliters […] Scintillation cocktail (Ultima-Flo-M) was added into each well and plates counted on a Trilux Microbeta Counter.
• 1. Add 1 μL DMSO or compounds into the wells according to the protocol. • 2. Add 60 μL incubation buffer with [β-^33P]-2-thiomethyl ADP into each well. • 3. Add 40 μL hP2Y1 expressing 132N1 cell membrance prep. Incubate 60 minutes on top of the shaker (IKA Shutter MTS4). • 4. Filter and wash 8× with Tomtec Cell Harvester through UniFilter GF/B plates (PerkinElmer, 6005177). • 5. Add 45 μL scintillation cocktail into each well and plates counted on a Trilux Microbeta Counter.

T1 sequence (P47900 whole entry): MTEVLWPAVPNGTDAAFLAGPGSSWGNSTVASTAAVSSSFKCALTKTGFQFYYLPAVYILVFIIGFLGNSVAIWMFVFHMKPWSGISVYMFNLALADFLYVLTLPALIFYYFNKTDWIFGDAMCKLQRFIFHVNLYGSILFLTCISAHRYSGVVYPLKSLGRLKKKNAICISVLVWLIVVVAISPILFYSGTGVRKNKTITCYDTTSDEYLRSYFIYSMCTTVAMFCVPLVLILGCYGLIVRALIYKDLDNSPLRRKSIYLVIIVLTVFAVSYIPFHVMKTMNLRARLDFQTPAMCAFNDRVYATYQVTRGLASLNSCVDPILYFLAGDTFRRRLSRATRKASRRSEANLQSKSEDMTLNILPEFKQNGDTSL

By IC50 is commonly meant the midpoint of a concentration-inhibition curve. High values mean weaker potency, low ones greater potency. The molecule `Cc1cc(Oc2ccccc2NC(=O)Nc2ccc(C(C)(C)CO)cc2)n(-c2ccccc2Cl)n1` [Example 85, 1-{2-[2-(2-Chloro-phenyl)-5-methyl-2H-pyrazol-3-yloxy]-phenyl}-3-[4-(2-hydroxy-1,1-dimethyl-ethyl)-phenyl]-urea] registered an IC50 above 10000 nM.
Consider `Cc1cc(Oc2ccccc2NC(=O)Nc2cccc(C(F)(F)F)c2)n(-c2ccccc2)n1` [Example 36], for which the IC50 came to 1300 nM.
The figure for `Cc1cc(Oc2ccccc2NC(=O)Nc2ccc(C3CCNCC3)cc2)n(-c2ccccc2Cl)n1` [Example 120, 1-(2-(1-(2-chlorophenyl)-3-methyl-1H-pyrazol-5-yloxy)phenyl)-3-(4-(piperidin-4-yl)phenyl)urea] is above 10000 nM.
Molecule `CC(=O)N1CCC(c2ccc(NC(=O)Nc3ccccc3Oc3cc(C)nn3-c3ccccc3Cl)cc2)CC1` [Example 121, 1-(4-(1-acetylpiperidin-4-yl)phenyl)-3-(2-(1-(2-chlorophenyl)-3-methyl-1H-pyrazol-5-yloxy)phenyl)urea] registered an IC50 above 10000 nM.
`CCc1ccccc1-n1nc(C)cc1Oc1ccccc1NC(=O)Nc1ccc(CN2CCCCC2)cc1` [Example 105, 1-(2-(1-(2-ethylphenyl)-3-methyl-1H-pyrazol-5-yloxy)phenyl)-3-(4-(piperidin-1-ylmethyl)phenyl)urea] returned an IC50 above 10000 nM.
As to `COc1cccc(Oc2cc(C)nn2-c2ccccc2)c1NC(=O)Nc1ccc(OC(F)(F)F)cc1` [Example 33], the IC50 is above 10000 nM.
Next, `CCc1ccccc1-n1nc(C)cc1Oc1ccccc1NC(=O)Nc1ccc(OC)cc1` [Example 103, 1-(2-(1-(2-ethylphenyl)-3-methyl-1H-pyrazol-5-yloxy)phenyl)-3-(4-methoxyphenyl)urea]: 564 nM; `Cc1cc(Oc2ccccc2NC(=O)Nc2ccc(C3CCSCC3)cc2)n(-c2ccccc2Cl)n1` [Example 127, 1-(2-(1-(2-chlorophenyl)-3-methyl-1H-pyrazol-5-yloxy)phenyl)-3-(4-(tetrahydro-2H-thiopyran-4-yl)phenyl)urea]: 158 nM; `Cc1ccc(-n2nc(C)cc2Oc2ccccc2NC(=O)Nc2ccc(OC(F)(F)F)cc2)cc1` [Example 10]: 188 nM.
Next, `CCc1ccccc1-n1nc(C)cc1Oc1ccccc1NC(=O)Nc1ccc(OC(F)(F)F)cc1Cl` [Example 94, 1-(2-chloro-4-(trifluoromethoxy)phenyl)-3-(2-(1-(2-ethylphenyl)-3-methyl-1H-pyrazol-5-yloxy)phenyl)urea]: 8780 nM; `Cc1cc(Oc2ccccc2NC(=O)Nc2ccc(C(C)(C)C(=O)O)cc2)n(-c2ccccc2Cl)n1` [Example 84, 2-[4-(3-{2-[2-(2-Chloro-phenyl)-5-methyl-2H-pyrazol-3-yloxy]-phenyl}-ureido)-phenyl]-2-methyl-propionic acid]: above 10000 nM; `Cc1cc(Oc2ccccc2NC(=O)Nc2ccc(C3CCOCC3)cc2)n(-c2ccccc2Cl)n1` [Example 128, 1-(2-(1-(2-chlorophenyl)-3-methyl-1H-pyrazol-5-yloxy)phenyl)-3-(4-(tetrahydro-2H-pyran-4-yl)phenyl)urea]: 763 nM.
Next, `COc1ccc(-n2nc(C)cc2Oc2ccccc2NC(=O)Nc2ccc(OC(F)(F)F)cc2)cc1` [Example 18]: 731 nM; `Cc1cc(Oc2ccccc2NC(=O)Nc2c(C)cccc2C(C)(C)C)n(-c2ccccc2)n1` [Example 77]: above 10000 nM; `Cc1cc(Oc2ccccc2NC(=O)Nc2ccc(OC(F)(F)F)cc2)n(-c2ccccc2Cl)n1` [Example 2, 1-{2-[2-(2-Chloro-phenyl)-5-methyl-2H-pyrazol-3-yloxy]-phenyl}-3-(4-trifluoromethoxy-phenyl)-urea]: 89 nM.
`Cc1cc(Oc2ccccc2NC(=O)Nc2ccc(OC(F)(F)F)cc2)n(-c2ccc(F)cc2)n1` [Example 15] displayed an IC50 of 283 nM.
